Data as given in US20130281467A1, “NOVEL MICROBICIDES” (SYNGENTA PARTICIPATIONS AG, priority 2010, published 2013).

Key:
[1] = system: Glomerella lagenarium (Colletotrichum lagenarium); assay: Fungicidal activity against Glomerella lagenarium (Colletotrichum lagenarium) / liquid culture (anthracnose); assay type: cell-based; conditions: Colletotrichum orbiculare, 3-4 days after application, read-out: disease control (inhibition of growth, photometrically)
Experimental: (§1) Fungicidal Activity Against Glomerella lagenarium (Colletotrichum lagenarium)/Liquid Culture (Anthracnose) Conidia of the fungus from cryogenic storage were directly mixed into nutrient broth (PDB potato dextrose broth). After placing a (DMSO) solution of test compound into a microtiter plate (96-well format), the nutrient broth containing the fungal spores was added. The test plates were incubated at 24° C. and the inhibition of growth was measured photometrically 3-4 days after application.

[2] = system: Blumeria graminis f. Sp. tritici (Erysiphe graminis f. sp. tritici); assay: Fungicidal activity against Blumeria graminis f. sp. tritici / wheat / leaf disc preventative (powdery mildew on wheat); assay type: in vivo; conditions: foliar, wheat leaf segments, inoculated 1 day after application, compared to untreated, read-out: disease control
Experimental: Fungicidal Activity Against Blumeria graminis f. Sp. tritici (Erysiphe graminis f. sp. tritici)/Wheat/Leaf Disc Preventative (Powdery Mildew on Wheat)
Wheat leaf segments cv. Kanzler were placed on agar in a multiwell plate (24-well format) and sprayed with the formulated test compound diluted in water. The leaf disks were inoculated by shaking powdery mildew infected plants above the test plates 1 day after application. The inoculated leaf disks were incubated at 20° C. and 60% rh under a light regime of 24 h darkness followed by 12 h light/12 h darkness in a climate chamber and the activity of a compound was assessed as percent disease control compared to untreated when an appropriate level of disease damage appears on untreated check leaf segments (6-8 days after application).

[3] = system: Botryotinia fuckeliana (Botrytis cinerea); assay: Fungicidal activity against Botryotinia fuckeliana (Botrytis cinerea) / liquid culture (gray mould); assay type: cell-based; conditions: 3-4 days after application, read-out: disease control (inhibition of growth, photometrically)
Experimental: as §1, with “Botryotinia fuckeliana (Botrytis cinerea)/Liquid” for “Glomerella lagenarium (Colletotrichum lagenarium)/Liquid”, “(Gray Mould)” for “(Anthracnose)”, “(Vogels” for “(PDB potato dextrose”, “determined” for “measured”

[4] = system: Gaeumannomyces graminis; assay: Fungicidal activity against Gaeumannomyces graminis / liquid culture (take-all of cereals); assay type: cell-based; conditions: 4-5 days after application, read-out: disease control (inhibition of growth, photometrically)
Experimental: (§2) Fungicidal Activity Against Gaeumannomyces graminis/Liquid Culture (Take-all of Cereals) Mycelial fragments of the fungus from cryogenic storage were directly mixed into nutrient broth (PDB potato dextrose broth). After placing a (DMSO) solution of test compound into a microtiter plate (96-well format), the nutrient broth containing the fungal spores iss added. The test plates were incubated at 24° C. and the inhibition of growth was determined photometrically 4-5 days after application.

[5] = system: Pyrenophora teres; assay: Fungicidal activity against Pyrenophora teres / barley / leaf disc preventative (net blotch); assay type: in vivo; conditions: foliar, barley leaf segments, inoculated 2 days after application, compared to untreated, read-out: disease control
Experimental: Fungicidal Activity Against Pyrenophora teres/Barley/Leaf Disc Preventative (Net Blotch) Barley leaf segments cv. Hasso were placed on agar in a multiwell plate (24-well format) and sprayed with the formulated test compound diluted in water. The leaf segments were inoculated with a spore suspension of the fungus 2 days after application. The inoculated leaf segments were incubated at 20° C. and 65% rh under a light regime of 12 h light/12 h darkness in a climate cabinet and the activity of a compound was assessed as disease control compared to untreated when an appropriate level of disease damage appears in untreated check leaf segments (5-7 days after application).

[6] = system: Mycosphaerella arachidis (Cercospora arachidicola); assay: Fungicidal activity against Mycosphaerella arachidis (Cercospora arachidicola) / liquid culture (early leaf spot); assay type: cell-based; conditions: 4-5 days after application, read-out: disease control (inhibition of growth, photometrically)
Experimental: as §2, with “Mycosphaerella arachidis (Cercospora arachidicola)/Liquid” for “Gaeumannomyces graminis/Liquid”, “(Early Leaf Spot) Conidia” for “(Take-all of Cereals) Mycelial fragments”, “was” for “iss”

[7] = system: Puccinia recondita f. sp. tritici; assay: Fungicidal activity against Puccinia recondita f. sp. tritici / wheat / leaf disc preventative (brown rust); assay type: in vivo; conditions: foliar, wheat leaf segments, inoculated 1 day after application, compared to untreated, read-out: disease control
Experimental: Fungicidal Activity Against Puccinia recondita f. sp. tritici/Wheat/Leaf Disc Preventative (Brown Rust) Wheat leaf segments cv. Kanzler were placed on agar in multiwell plates (24-well format) and sprayed with the formulated test compound diluted in water. The leaf disks were inoculated with a spore suspension of the fungus 1 day after application. The inoculated leaf segments were incubated at 19° C. and 75% rh under a light regime of 12 h light/12 h darkness in a climate cabinet and the activity of a compound was assessed as percent disease control compared to untreated when an appropriate level of disease damage appears in untreated check leaf segments (7-9 days after application).

[8] = system: Monographella nivalis (Microdochium nivale); assay: Fungicidal activity against Monographella nivalis (Microdochium nivale) / liquid culture (foot rot cereals); assay type: cell-based; conditions: 4-5 days after application, read-out: disease control (inhibition of growth, photometrically)
Experimental: as §2, with “Monographella nivalis (Microdochium nivale)/Liquid” for “Gaeumannomyces graminis/Liquid”, “(Foot Rot” for “(Take-all of”, “Conidia” for “Mycelial fragments”, “was” for “iss”

[9] = system: Phaeosphaeria nodorum (Septoria nodorum); assay: Fungicidal activity against Phaeosphaeria nodorum (Septoria nodorum) / wheat / leaf disc preventative (glume blotch); assay type: in vivo; conditions: Parastagonospora nodorum, foliar, wheat leaf segments, inoculated 2 days after application, compared to untreated, read-out: disease control
Experimental: Fungicidal Activity Against Phaeosphaeria nodorum (Septoria nodorum)/Wheat/Leaf Disc Preventative (Glume Blotch) Wheat leaf segments cv. Kanzler were placed on agar in a multiwell plate (24-well format) and sprayed with the formulated test compound diluted in water. The leaf disks were inoculated with a spore suspension of the fungus 2 days after application. The inoculated test leaf disks were incubated at 20° C. and 75% rh under a light regime of 12 h light/12 h darkness in a climate cabinet and the activity of a compound was assessed as percent disease control compared to untreated when an appropriate level of disease damage appears in untreated check leaf disks (5-7 days after application).

[10] = system: Thanatephorus cucumeris (Rhizoctonia solani); assay: Fungicidal activity against Thanatephorus cucumeris (Rhizoctonia solani) / liquid culture (foot rot, damping-off); assay type: cell-based; conditions: 3-4 days after application, read-out: disease control (inhibition of growth, photometrically)
Experimental: Fungicidal Activity Against Thanatephorus cucumeris (Rhizoctonia solani)/Liquid Culture (Foot Rot, Damping-Off) Mycelia fragments of a newly grown liquid culture of the fungus were directly mixed into nutrient broth (PDB potato dextrose broth). After placing a (DMSO) solution of the test compounds into a microtiter plate (96-well format), the nutrient broth containing the fungal material was added. The test plates were incubated at 24° C. and the inhibition of growth was determined photometrically 3-4 days after application.

[11] = system: Mycosphaerella graminicola (Septoria tritici); assay: Fungicidal activity against Mycosphaerella graminicola (Septoria tritici) / liquid culture (Septoria blotch); assay type: cell-based; conditions: Zymoseptoria tritici, 4-5 days after application, read-out: disease control (inhibition of growth, photometrically)
Experimental: as §2, with “Mycosphaerella graminicola (Septoria tritici)/Liquid” for “Gaeumannomyces graminis/Liquid”, “(Septoria Blotch) Conidia” for “(Take-all of Cereals) Mycelial fragments”, “was” for “iss”

Row | melting point [°C] | SMILES | inhibition at 200 ppm [1] [%] | pest or weed control at 200 ppm [2] [%] | inhibition at 200 ppm [3] [%] | inhibition at 200 ppm [4] [%] | pest or weed control at 200 ppm [5] [%] | inhibition at 200 ppm [6] [%] | pest or weed control at 200 ppm [7] [%] | inhibition at 200 ppm [8] [%] | pest or weed control at 200 ppm [9] [%] | inhibition at 200 ppm [10] [%] | inhibition at 200 ppm [11] [%]
1 | 239 to 241 | CO/N=C1\CC(C)(C)Cc2nc(-c3cccc(Cc4ccccc4OC)n3)ncc21 [Compound 10] |  |  |  |  |  |  |  |  |  |  | 
2 | 183 to 184 | CC1(C)CCc2cnc(-c3cccc(Cc4ccc(Cl)cc4)n3)nc2C1 [Compound 12] |  |  | ≥ 80 |  |  | ≥ 80 |  |  |  |  | 
3 | 272 to 273 | CC1(C)CCc2cnc(-c3cccc(Cc4ccccc4Cl)n3)nc2C1 [Compound 13] | ≥ 80 |  | ≥ 80 |  |  | ≥ 80 |  | ≥ 80 | ≥ 80 | ≥ 80 | ≥ 80
4 | 251 to 252 | COc1ccccc1Cc1cccc(-c2ncc3c(n2)CC(C)(C)CC3)n1 [Compound 14, 2-[6-(2-methoxybenzyl)-pyridin-2-yl]-7,7-dimethyl-5,6,7,8-tetrahydroquinazoline] | ≥ 80 |  | ≥ 80 | ≥ 80 | ≥ 80 | ≥ 80 |  | ≥ 80 |  | ≥ 80 | ≥ 80
5 | 259 to 260 | Cc1ccccc1Cc1cccc(-c2ncc3c(n2)CC(C)(C)CC3)n1 [Compound 15] | ≥ 80 |  | ≥ 80 |  | ≥ 80 | ≥ 80 |  | ≥ 80 | ≥ 80 | ≥ 80 | ≥ 80
6 | 219 to 220 | CC1(C)CCc2cnc(-c3cccc(Cc4cccc(Cl)c4)n3)nc2C1 [Compound 16] | ≥ 80 |  | ≥ 80 |  | ≥ 80 | ≥ 80 |  | ≥ 80 | ≥ 80 |  | ≥ 80
7 | 69 to 75 | O=C1CCCc2nc(-c3cccc(Cc4ccccc4)n3)ncc21 [Compound 20] | ≥ 80 |  | ≥ 80 | ≥ 80 |  | ≥ 80 |  |  |  |  | ≥ 80
8 | 286 to 288 | COc1ccc(OC)c(Cc2cccc(-c3ncc4c(n3)CCOC4)n2)c1 [Compound 22] | ≥ 80 | ≥ 80 | ≥ 80 | ≥ 80 | ≥ 80 |  | ≥ 80 |  | ≥ 80 |  | ≥ 80

The next lines start with the compound.

Row | SMILES | melting point [°C] | inhibition at 200 ppm [1] [%] | pest or weed control at 200 ppm [2] [%] | inhibition at 200 ppm [3] [%] | inhibition at 200 ppm [4] [%] | pest or weed control at 200 ppm [5] [%] | inhibition at 200 ppm [6] [%] | pest or weed control at 200 ppm [7] [%] | inhibition at 200 ppm [8] [%] | pest or weed control at 200 ppm [9] [%] | inhibition at 200 ppm [10] [%] | inhibition at 200 ppm [11] [%]
9 | N#Cc1cccc(Cc2cccc(-c3ncc4c(n3)CCOC4)n2)c1 [Compound 8] | 206 to 207 |  |  |  |  |  |  |  |  |  |  | 
10 | CO/N=C1\CCCc2nc(-c3cccc(Cc4ccccc4)n3)ncc21 [Compound 9] | 213 to 215 | ≥ 80 | ≥ 80 | ≥ 80 | ≥ 80 | ≥ 80 | ≥ 80 | ≥ 80 | ≥ 80 | ≥ 80 |  | 
11 | COc1ccc(Cc2cccc(-c3ncc4c(n3)CCCCC4)n2)cc1 [Compound 35] |  | ≥ 80 | ≥ 80 | ≥ 80 | ≥ 80 | ≥ 80 | ≥ 80 | ≥ 80 | ≥ 80 | ≥ 80 | ≥ 80 | ≥ 80
12 | COc1ccc(Cc2cccc(-c3ncc4c(n3)CC(C)(C)CC4)n2)cc1 [Compound 37] |  | ≥ 80 | ≥ 80 | ≥ 80 | ≥ 80 | ≥ 80 | ≥ 80 | ≥ 80 | ≥ 80 | ≥ 80 | ≥ 80 | ≥ 80
13 | COc1ccc(Cc2cccc(-c3ncc4c(n3)CCCC4)n2)cn1 [Compound 41] |  | ≥ 80 | ≥ 80 | ≥ 80 | ≥ 80 | ≥ 80 | ≥ 80 | ≥ 80 | ≥ 80 | ≥ 80 | ≥ 80 | ≥ 80
14 | COc1ccc(Cc2cccc(-c3ncc4c(n3)CC(C)(C)CC4)n2)cn1 [Compound 42] |  | ≥ 80 | ≥ 80 | ≥ 80 | ≥ 80 | ≥ 80 | ≥ 80 | ≥ 80 | ≥ 80 | ≥ 80 | ≥ 80 | ≥ 80
15 | COc1ccc(C(C)c2cccc(-c3ncc4c(n3)CCCC4)n2)nc1 (centres unmarked) [Compound 44] |  | ≥ 80 | ≥ 80 | ≥ 80 | ≥ 80 | ≥ 80 | ≥ 80 | ≥ 80 | ≥ 80 | ≥ 80 | ≥ 80 | ≥ 80
